Results: publication PMC7226075, “A Novel Serine Protease Inhibitor PE-BBI Ameliorates Cockroach Extract-Mediated Airway Epithelial Barrier Dysfunction” (Biomolecules, 2020)
“Also recorded” adds a separate entry of the source.

Key:
[1] = tested on: recombinant trypsin; assay: Inhibition of recombinant trypsin, fluorogenic peptide substrate-based activity assay; assay type: biochemical; settings: Boc-QAR-NH2Mec 50 µM, λex 380/λem 460 nm, 37 °C, 100 μL, inhibitors 0.01–10 μM, four-parameter logistic fit; mean (95% CI) in Figure 1B, n ≥ 4
Description: (§1) Cleavage of the fluorogenic peptide substrate Boc-QAR-NH2Mec (50 µM final concentration) (R&D Systems) was used to assay TLP activity with the rate of substrate hydrolysis continuously recorded at λex 380 nm and λem 460 nm using a FLUOstar Optima microplate reader (BMG Labtech). All inhibition assays were performed in microtitre plates maintained at 37 °C in a final volume of 100 μL. Curve fitting and pIC50 (-logIC50) determinations were carried out by fitting to a four-parameter logistic equation (GraphPad Prism).

[2] = tested on: cockroach extract (CRE) trypsin-like protease (TLP) activity; assay: Inhibition of CRE trypsin-like protease (TLP) activity, fluorogenic peptide substrate-based assay; assay type: biochemical, German cockroach; settings: Boc-QAR-NH2Mec 50 µM, λex 380/λem 460 nm, 37 °C, 100 μL, inhibitors 0.01–10 μM, four-parameter logistic fit; mean (95% CI) in Figure 1B, n ≥ 4
Description: Whole-body German cockroach extract was sourced from Greer Laboratories (USA). All other reagents were obtained from Sigma-Aldrich unless otherwise indicated.
as §1

[3] = tested on: 16HBE cell surface TLP activity; assay: 16HBE cell surface TLP activity assay; assay type: cell-based, human; settings: polarised 16HBE, inhibitor 50 µM, Boc-QAR-NH2Mec 50 µM apical, 1 h continuous, λex 380/λem 460 nm; n = 7, mean ± SEM
Description: Studies were performed using a SV-40-transformed human bronchial epithelial cell line (16HBE14o^-). The 16HBE cells were grown on collagen-coated T75 flasks (Corning) using bronchial epithelial growth medium (BEGM) (Lonza), in a humidified cell culture incubator supplemented with 5% CO2. After trypsinization, cells (5 × 10^5 cells/cm^2) were seeded onto semipermeable transwell filters (Corning) in BEGM and allowed to grow at liquid–liquid interface for 2 days then switched to DMEM/F-12 medium supplemented with 2% (v/v) Ultroser G (Pall-BioSpera) for a further 2 days (liquid–liquid interface), at which point cultures were exposed to air–liquid interface conditions for a further 5–7 day period, whereupon experiments were conducted.
Polarised 16HBE cells grown on transwell semi-permeable filters were used to assess cell surface TLP activity. Apical cell-surface (membrane-attached) proteolytic activity was measured in stringently washed (using PBS) cells via direct addition of a fluorogenic peptide substrate (50 µM Boc-QAR-–NH2Mec) to the apical compartment with continuous measurement of the formation of –NH2Mec (at λex 380 nm and λem 460 nm) over a 1 h period. Surface activity was determined in the presence and absence of protease inhibitors (GM, pLR-HL or PE-BBI) which were added at a final concentration of 50 µM.

[4] = tested on: 16HBE cells; assay: Cell viability assay (RealTime-Glo MT), submerged 16HBE cells; assay type: cell-based, human; settings: CRE 16.5 µg protein/well, 24 h, inhibitor 50 µM, n = 6
Description: Cell viability was measured in submerged 16HBE cells using the non-lytic and homogeneous RealTime-Glo MT Cell Viability Assay (Promega) as per the manufacturer’s instructions.

[5] = tested on: BEAS-2B cells; settings: ref [13], cited from earlier work

pIC50 (-logIC50) vs recombinant trypsin [1]: 6.76 | pIC50 (-logIC50) vs CRE TLP activity [2]: ~ 6.7
SMILES: CCOC(=O)c1ccc(OC(=O)CCCCCN=C(N)N)cc1.CS(=O)(=O)O [GM, gabexate mesylate]
Effect on 16HBE cell surface TLP activity [3]: significantly reduced | Rescue of CRE-induced cell damage (viability) [4]: failed to do so; also recorded: trend towards modest protection of cells by GM, and pLR-HL, but this was not statistically significant | CRE-induced airway epithelial cell damage in presence of GM ([5]; previous study): ameliorates CRE-induced airway epithelial cell damage | CRE-mediated cell damage and inflammation in presence of GM [5]: reduced CRE-mediated cell damage and inflammation
